Laboratory results published in PubChem BioAssay (NCI).
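Five compound concentrations were applied to cells in 96-well plates for 48 hours; endpoints were derived by simple linear interpolation of the resulting dose-response curve. The concentration for 50% growth inhibition is given as GI50. TGI denotes the concentration required for complete inhibition of growth.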

Key:
Assay in all cases: NCI anticancer screen, dose series, 48 h
SR leukemia = system: SR leukemia
DU-145 prostate = system: DU-145 prostate
A498 renal = system: A498 renal
UACC-62 melanoma = system: UACC-62 melanoma
HOP-62 NSCLC = system: HOP-62 NSCLC
MOLT-4 leukemia = system: MOLT-4 leukemia
786-0 renal = system: 786-0 renal
EKVX NSCLC = system: EKVX NSCLC
SK-OV-3 ovarian = system: SK-OV-3 ovarian
U251 CNS = system: U251 CNS
SK-MEL-28 melanoma = system: SK-MEL-28 melanoma
HCT-15 colon = system: HCT-15 colon
BT-549 breast = system: BT-549 breast
RPMI-8226 leukemia = system: RPMI-8226 leukemia
HT29 colon = system: HT29 colon
RXF 393 renal = system: RXF 393 renal
NCI-H226 lung = system: NCI-H226 lung

| SMILES | TGI (SR leukemia) [µM] | GI50 (DU-145 prostate) [µM] | TGI (DU-145 prostate) [µM] | TGI (A498 renal) [µM] | GI50 (UACC-62 melanoma) [µM] | TGI (UACC-62 melanoma) [µM] | GI50 (HOP-62 NSCLC) [µM] | TGI (HOP-62 NSCLC) [µM] | TGI (MOLT-4 leukemia) [µM] | TGI (786-0 renal) [µM] | TGI (EKVX NSCLC) [µM] | TGI (SK-OV-3 ovarian) [µM] | TGI (U251 CNS) [µM] | TGI (SK-MEL-28 melanoma) [µM] | TGI (HCT-15 colon) [µM] | TGI (BT-549 breast) [µM] | TGI (RPMI-8226 leukemia) [µM] | TGI (HT29 colon) [µM] | TGI (RXF 393 renal) [µM] | TGI (NCI-H226 lung) [µM] |
| --- | --- | --- | --- | --- | --- | --- | --- | --- | --- | --- | --- | --- | --- | --- | --- | --- | --- | --- | --- | --- |
| CCCCCCNC(=O)c1cc(C#Cc2cc(OC)ccc2OC)ccc1OC | > 100 | > 100 | > 100 | > 100 | 56.8 | > 100 | 11.8 | > 100 | > 100 | > 100 | > 100 | > 100 | > 100 | > 100 | > 100 | > 100 | > 100 | > 100 | – | – |
| CCc1ccc(CCC(=O)O)nc1 | > 100 | – | > 100 | > 100 | – | > 100 | – | > 100 | – | > 100 | > 100 | > 100 | > 100 | > 100 | > 100 | > 100 | > 100 | > 100 | > 100 | > 100 |
| O=C(Nc1ccc(Cl)c(Cl)c1)C(=O)C(C1OC(=O)c2ccccc21)[N+](=O)[O-] (stereo unspecified) | > 100 | – | > 100 | > 100 | – | > 100 | – | > 100 | > 100 | > 100 | > 100 | > 100 | > 100 | > 100 | > 100 | > 100 | – | > 100 | > 100 | > 100 |
| Cc1nc2c(O)cccc2c(=O)[nH]1 | > 1000 | – | – | > 1000 | – | > 1000 | – | > 1000 | > 1000 | > 1000 | > 1000 | > 1000 | > 1000 | > 1000 | > 1000 | 634 | > 1000 | > 1000 | > 1000 | > 1000 |
| CC1(C)CC(=O)C(CC(C(=O)C(=O)Nc2cc(C(F)(F)F)ccc2Cl)C(=O)c2ccco2)C(=O)C1 (stereo unspecified) | – | – | > 100 | > 100 | – | > 100 | – | – | > 100 | > 100 | > 100 | > 100 | > 100 | > 100 | > 100 | > 100 | > 100 | > 100 | – | > 100 |
| Cc1cccc2nc3n(c12)C(=O)c1ccccc1-3 | > 100 | – | > 100 | – | – | > 100 | – | > 100 | > 100 | > 100 | > 100 | > 100 | > 100 | > 100 | > 100 | > 100 | > 100 | > 100 | > 100 | > 100 |
| CCN(CC)CCCC(C)NC(=O)c1cc(-c2nccn2C)nc2ccc(C)cc12 (stereo unspecified) | – | – | > 100 | > 100 | – | > 100 | – | > 100 | – | > 100 | > 100 | – | > 100 | > 100 | > 100 | > 100 | > 100 | > 100 | > 100 | > 100 |
| OCCOCCN1CCN(c2nc(N3CCCC3)c3nc(Cl)c(NCc4ccccc4)nc3n2)CC1 | 17.8 | – | 25.3 | – | – | 27.3 | – | 26.7 | 27.8 | 26.5 | 27.1 | 31.9 | 25.5 | 30.2 | 15.3 | 29.1 | 27.9 | 13.7 | 11.8 | 40.7 |
